Assay results reported in patent US20040023312A1, “Method for diagnosing huntingtons disease and means of treating it” (priority 2002, published 2004).
Read-outs that look alike come from different tables or passages of the source.

Columns and labels:
[1] = in vivo; cited from earlier work
A2A receptor = A2A receptor (Rattus norvegicus, UniProt P30543); settings: for cAMP formation with NECA + antagonist: 100 nM NECA, ST14A cells
adenyl cyclase = assay: cAMP levels stimulated by forskolin in ST14A parental cells and huntingtin clones; format: cell-based, rat
G-proteins = assay: cAMP response induced by GTP-gammaS, a direct stimulator of G-proteins; format: cell-based, rat; settings: 10 μM GTP-gammaS; parental clone
Source text: This concept is set down in the next page.

N548wt cells = assay: Serum-deprivation induced cell death (mitochondrial function); settings: antagonist 100 nM, 24 h serum-free medium
Source text: Cell death has been induced by shifting cultures to serum-free medium in the absence (black columns) or presence of the indicated A2A receptor antagonists. Data are the mean±S.E. of 6 experiments run in triplicate and are expressed as % of total cell death. *p<0.05 vs. control, Scheffe's test.
To assess the functional importance of the aberrant A2A receptor phenotype and its possible correlation with susceptibility to cell death, we have performed experiments where the influence of A2A receptor antagonists on the survival rate of ST14A cells have been specifically determined.

[2] = focal ischaemia model; cited from earlier work

A2A receptor, sequence (P30543 whole entry): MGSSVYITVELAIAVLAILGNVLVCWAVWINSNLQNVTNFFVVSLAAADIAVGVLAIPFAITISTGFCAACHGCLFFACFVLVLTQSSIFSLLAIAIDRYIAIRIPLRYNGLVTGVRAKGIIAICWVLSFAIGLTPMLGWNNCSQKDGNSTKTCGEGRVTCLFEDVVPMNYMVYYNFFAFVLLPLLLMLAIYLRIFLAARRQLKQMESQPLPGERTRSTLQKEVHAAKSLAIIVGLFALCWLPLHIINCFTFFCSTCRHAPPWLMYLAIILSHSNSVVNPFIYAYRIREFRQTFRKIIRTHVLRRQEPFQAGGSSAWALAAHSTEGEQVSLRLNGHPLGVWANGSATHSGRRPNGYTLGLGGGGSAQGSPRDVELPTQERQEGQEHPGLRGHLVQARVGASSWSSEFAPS

For `CCCCC#Cc1nc(N)c2ncn([C@@H]3O[C@H](C(=O)NCC)[C@@H](O)[C@H]3O)c2n1` [2-hexinyl-NECA], the “convulsions induced by pentyl-tetrazole” value [1] is listed as “markedly reduces”.

For `Cn1c(=O)c2c(ncn2C)n(C)c1=O` [Caffeine, caffeine], the “cAMP formation with NECA + antagonist” value (A2A receptor; antagonist 10 μM) was 30 ± 3 pmole/10^5 cells, the “cAMP formation with NECA + antagonist” value (A2A receptor; antagonist 100 μM) was 27 ± 3 pmole/10^5 cells and the “cAMP formation with NECA + antagonist” value (A2A receptor; antagonist 1 mM) was 24 ± 3 pmole/10^5 cells. The “antagonism of the increases in cAMP induced by NECA” value (A2A receptor; NECA 100 nM, parental clone and engineered clones) was “completely antagonizing”.

For `C=C[C@@]1(C)CC(=O)[C@]2(O)[C@@]3(C)[C@@H](O)CCC(C)(C)[C@@H]3[C@H](O)[C@H](OC(C)=O)[C@@]2(C)O1` [Forskolin], the “cyclic AMP levels stimulated by forskolin” value (shortened to “cyclic AMP levels stimulated”) (adenyl cyclase; Forskolin 1 μM + Ro201724 0.5 mM, FL mu cells) was 78 ± 7 pmoles/10^5 cells, the “cyclic AMP levels stimulated” value (adenyl cyclase; Forskolin 1 μM + Ro201724 0.5 mM, FL wt cells) was 60 ± 6 pmoles/10^5 cells and the “cyclic AMP levels stimulated” value (adenyl cyclase; Forskolin 1 μM + Ro201724 0.5 mM, N548 wt cells) was 63 ± 6 pmoles/10^5 cells. The “cyclic AMP levels stimulated” value (adenyl cyclase; Forskolin 1 μM + Ro201724 0.5 mM, ST14A cells) was 58 ± 4 pmoles/10^5 cells, the “cyclic AMP levels stimulated” value (adenyl cyclase; Forskolin 1 μM, FL mu cells) was 55 ± 5 pmoles/10^5 cells and the “cyclic AMP levels stimulated” value (adenyl cyclase; Forskolin 1 μM, FL wt cells) was 54 ± 6 pmoles/10^5 cells. For the same compound, the “cyclic AMP levels stimulated” value (adenyl cyclase; Forskolin 1 μM, N548 wt cells) was 47 ± 3 pmoles/10^5 cells and the “cyclic AMP levels stimulated” value (adenyl cyclase; Forskolin 1 μM, ST14A cells) was 45 ± 5 pmoles/10^5 cells.

In the case of `Nc1nc2c(ncn2[C@@H]2O[C@H](COP(=O)(O)OP(=O)(O)OP(O)(O)=S)[C@@H](O)[C@H]2O)c(=O)[nH]1` [GTP-gammaS], the “cAMP levels in the presence of GTP-gammaS” value (G-proteins) is reported as 65±2 pmoles/10^5 cells.

For `Nc1nc2c(cnn2CCc2ccccc2)c2nc(-c3ccco3)nn12` [SCH 58261, 5-amino-7-(2-phenylethyl)-2-(2-furyl)pyrazolo[4,3-e]-1,2,4-triazolo [1,5-c]pyrimidine], the “effect on extent of serum-deprivation induced cell death” value (N548wt cells) is given as “did not significantly affect” and the “cortical damage associated with occlusion of the middle cerebral artery” value [2] is given as “significantly reducing”.

For `Nc1nc(NCCc2ccc(O)cc2)nc2nc(-c3ccco3)nn12` [ZM 241385, 4-[2-[[7-amino-2-(2-furyl)[1,2,4]triazolo[2,3-a][1,3,5]triazin-5-yl]amino]ethyl]phenol], the “effect on extent of serum-deprivation induced cell death” value (N548wt cells) was “did not significantly affect”.
